Data reported in ChEMBL document CHEMBL3885861, “Open TG-GATES”.

Organism: Rattus norvegicus
Experiment: Open TG-GATES - Regimen: Single
Assay type: toxicity, organism-based, Sprague-Dawley
Parameters: regimen Single, gender Male, age 6 weeks
Conditions: in vivo, po, 0 mg/kg, route gavage, dose level Control; for APTT / Bas / Eos / Fbg / Hb / Ht / Lym / MCH / MCV / Mono / Neu / PT / Plat / RBC / Ret / WBC: tissue Blood; for KIDNEY_L / KIDNEY_R / KIDNEY_TOTAL: tissue Kidney; for LIVER: tissue Liver; for ALP / ALT / AST / BUN / CRE / Ca / Cl / DBIL / GLC / IP / K / LDH / Na / PL / RALB / TBIL / TG / TP / gamma-GTP: tissue Plasma

`NC(=O)N1c2ccccc2C=Cc2ccccc21` [CARBAMAZEPINE] was tested, and the TERMINAL_BW (3 h) was 216.5 g, the APTT (3 h) was 20 s and the Bas (3 h) was 0%. It also gave an Eos (3 h) of 1%, a Fbg (3 h) of 213.8 mg/dL and a Hb (3 h) of 13.4 g/dL. It also gave a Ht (3 h) of 38.6%, a Lym (3 h) of 80% and an MCH (3 h) of 21.9 pg. The MCV (3 h) was 63.2 fL, the Mono (3 h) was 2% and the Neu (3 h) was 16%. The PT (3 h) was 12.4 s, the Plat (3 h) was 131 x10_4/uL and the RBC (3 h) was 611.8 x10_4/ul. The Ret (3 h) was 6.3%, the WBC (3 h) was 106.8 x10_2/uL and the KIDNEY_L (3 h) was 1 g. For the same molecule, the KIDNEY_R (3 h) was 0.9 g, the KIDNEY_TOTAL (3 h) was 1.9 g and the LIVER (3 h) was 10 g. The ALP (3 h) was 846.4 IU/L, the ALT (3 h) was 33 IU/L and the AST (3 h) was 64.6 IU/L. For the same molecule, the BUN (3 h) was 11.6 mg/dL, the CRE (3 h) was 0.4 mg/dL and the Ca (3 h) was 10.7 mg/dL. The Cl (3 h) was 103 meq/L, the DBIL (3 h) was 0.082 mg/dL and the GLC (3 h) was 199.2 mg/dL. For the same molecule, the IP (3 h) was 9 mg/dL, the K (3 h) was 3.6 meq/L and the LDH (3 h) was 176.6 IU/L. The Na (3 h) was 141.2 meq/L, the PL (3 h) was 131.8 mg/dL and the RALB (3 h) was 3.3 g/dL. It also gave a TBIL (3 h) of 0.1 mg/dL, a TG (3 h) of 66.2 mg/dL and a TP (3 h) of 5.4 g/dL. It also gave a gamma-GTP (3 h) of 0.8 IU/L, a TERMINAL_BW (6 h) of 213.8 g and an APTT (6 h) of 19.3 s. For the same molecule, the Bas (6 h) was 0%, the Eos (6 h) was 1% and the Fbg (6 h) was 220.2 mg/dL. The Hb (6 h) was 13.7 g/dL, the Ht (6 h) was 40% and the Lym (6 h) was 77%. For the same molecule, the MCH (6 h) was 21.3 pg, the MCV (6 h) was 62.5 fL and the Mono (6 h) was 3.2%. The Neu (6 h) was 17.6%, the PT (6 h) was 12.5 s and the Plat (6 h) was 115.6 x10_4/uL. The RBC (6 h) was 640.4 x10_4/ul, the Ret (6 h) was 6.6% and the WBC (6 h) was 94.2 x10_2/uL. It also gave a KIDNEY_L (6 h) of 1 g, a KIDNEY_R (6 h) of 1 g and a KIDNEY_TOTAL (6 h) of 2 g. For the same molecule, the LIVER (6 h) was 9.2 g, the ALP (6 h) was 858.4 IU/L and the ALT (6 h) was 37 IU/L. The AST (6 h) was 65.6 IU/L, the BUN (6 h) was 8.8 mg/dL and the CRE (6 h) was 0.4 mg/dL. The Ca (6 h) was 10.5 mg/dL, the Cl (6 h) was 103 meq/L and the DBIL (6 h) was 0.08 mg/dL. The GLC (6 h) was 196.8 mg/dL, the IP (6 h) was 9.4 mg/dL and the K (6 h) was 3.9 meq/L. For the same molecule, the LDH (6 h) was 175.2 IU/L, the Na (6 h) was 140.2 meq/L and the PL (6 h) was 133.4 mg/dL. For the same molecule, the RALB (6 h) was 3.3 g/dL, the TBIL (6 h) was 0.1 mg/dL and the TG (6 h) was 60.4 mg/dL. The TP (6 h) was 5.5 g/dL, the gamma-GTP (6 h) was 1.4 IU/L and the TERMINAL_BW (9 h) was 211.7 g. For the same molecule, the APTT (9 h) was 22.5 s, the Bas (9 h) was 0% and the Eos (9 h) was 1%. The Fbg (9 h) was 220 mg/dL, the Hb (9 h) was 13 g/dL and the Ht (9 h) was 38.2%. It also gave a Lym (9 h) of 78.8%, an MCH (9 h) of 20.9 pg and an MCV (9 h) of 61.5 fL. The Mono (9 h) was 2.2%, the Neu (9 h) was 17.5% and the PT (9 h) was 13.2 s. It also gave a Plat (9 h) of 119.7 x10_4/uL, an RBC (9 h) of 621.8 x10_4/ul and a Ret (9 h) of 6.6%. For the same molecule, the WBC (9 h) was 89.4 x10_2/uL, the KIDNEY_L (9 h) was 1 g and the KIDNEY_R (9 h) was 1 g. The KIDNEY_TOTAL (9 h) was 2 g, the LIVER (9 h) was 9.3 g and the ALP (9 h) was 824.8 IU/L. The ALT (9 h) was 32 IU/L, the AST (9 h) was 63.8 IU/L and the BUN (9 h) was 9.8 mg/dL. It also gave a CRE (9 h) of 0.4 mg/dL, a Ca (9 h) of 10.3 mg/dL and a Cl (9 h) of 102 meq/L. For the same molecule, the DBIL (9 h) was 0.07 mg/dL, the GLC (9 h) was 202.8 mg/dL and the IP (9 h) was 9.3 mg/dL. It also gave a K (9 h) of 3.9 meq/L, an LDH (9 h) of 170.4 IU/L and a Na (9 h) of 140.2 meq/L. It also gave a PL (9 h) of 127 mg/dL, an RALB (9 h) of 3.3 g/dL and a TBIL (9 h) of 0.1 mg/dL. The TG (9 h) was 47 mg/dL, the TP (9 h) was 5.3 g/dL and the gamma-GTP (9 h) was 1 IU/L. It also gave a TERMINAL_BW (24 h) of 225.7 g, an APTT (24 h) of 21.9 s and a Bas (24 h) of 0%. For the same molecule, the Eos (24 h) was 0.8%, the Fbg (24 h) was 215.6 mg/dL and the Hb (24 h) was 13.7 g/dL. For the same molecule, the Ht (24 h) was 40.7%, the Lym (24 h) was 79.8% and the MCH (24 h) was 21.5 pg. For the same molecule, the MCV (24 h) was 63.9 fL, the Mono (24 h) was 2.4% and the Neu (24 h) was 15.8%. The PT (24 h) was 12.1 s, the Plat (24 h) was 117.9 x10_4/uL and the RBC (24 h) was 637.2 x10_4/ul. For the same molecule, the Ret (24 h) was 6%, the WBC (24 h) was 90.1 x10_2/uL and the KIDNEY_L (24 h) was 1 g. It also gave a KIDNEY_R (24 h) of 1 g, a KIDNEY_TOTAL (24 h) of 2 g and an LIVER (24 h) of 10.4 g. The ALP (24 h) was 990.6 IU/L, the ALT (24 h) was 39.2 IU/L and the AST (24 h) was 70.4 IU/L. For the same molecule, the BUN (24 h) was 15.6 mg/dL, the CRE (24 h) was 0.4 mg/dL and the Ca (24 h) was 10.6 mg/dL. The Cl (24 h) was 102.4 meq/L, the DBIL (24 h) was 0.088 mg/dL and the GLC (24 h) was 207 mg/dL. The IP (24 h) was 7.9 mg/dL, the K (24 h) was 4 meq/L and the LDH (24 h) was 199 IU/L. The Na (24 h) was 140.4 meq/L, the PL (24 h) was 146.2 mg/dL and the RALB (24 h) was 3.4 g/dL. For the same molecule, the TBIL (24 h) was 0.1 mg/dL, the TG (24 h) was 93.6 mg/dL and the TP (24 h) was 5.6 g/dL.
